Measurements reported in the supplement of paper PMC11451515.

System: SEM cells
Assay: cell viability relative to DMSO control; higher = less cytotoxic
Conditions: 48 h
Outline: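 Cells were incubated for 48 h at 37°C before CellTiter-Glo One luminescence was read. The cells were NOMO1 or SEM (500 cells/well) or P12-Ichikawa (1000 cells/well) leukemia cells, adapted for at least four passages in each medium and seeded in 1536-well plates (5 μl). Dosing used library compounds in DMSO applied by pin over 11 threefold points, 47 μM to 0.79 nM. Viability is the per-plate percentage of DMSO wells, with cell-free wells as background.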

[1] = HPLM + 10% dialyzed FBS, 0.000781 µM
[2] = HPLM + 10% dialyzed FBS, 0.00234 µM
[3] = HPLM + 10% dialyzed FBS, 0.00702 µM
[4] = HPLM + 10% dialyzed FBS, 0.0211 µM
[5] = HPLM + 10% dialyzed FBS, 0.0632 µM
[6] = HPLM + 10% dialyzed FBS, 0.19 µM
[7] = HPLM + 10% dialyzed FBS, 0.569 µM
[8] = HPLM + 10% dialyzed FBS, 1.71 µM
[9] = HPLM + 10% dialyzed FBS, 5.12 µM
[10] = HPLM + 10% dialyzed FBS, 15.4 µM
[11] = HPLM + 10% dialyzed FBS, 46.1 µM
[12] = RPMI 5 mM glucose + 10% FBS, 0.000781 µM
[13] = RPMI 5 mM glucose + 10% FBS, 0.00234 µM
[14] = RPMI 5 mM glucose + 10% FBS, 0.00702 µM
[15] = RPMI 5 mM glucose + 10% FBS, 0.0211 µM
[16] = RPMI 5 mM glucose + 10% FBS, 0.0632 µM
[17] = RPMI 5 mM glucose + 10% FBS, 0.19 µM
[18] = RPMI 5 mM glucose + 10% FBS, 0.569 µM
[19] = RPMI 5 mM glucose + 10% FBS, 1.71 µM
[20] = RPMI 5 mM glucose + 10% FBS, 5.12 µM
[21] = RPMI 5 mM glucose + 10% FBS, 15.4 µM
[22] = RPMI 5 mM glucose + 10% FBS, 46.1 µM
[23] = RPMI 5 mM glucose + 10% dialyzed FBS, 0.000781 µM
[24] = RPMI 5 mM glucose + 10% dialyzed FBS, 0.00234 µM
[25] = RPMI 5 mM glucose + 10% dialyzed FBS, 0.00702 µM
[26] = RPMI 5 mM glucose + 10% dialyzed FBS, 0.0211 µM
[27] = RPMI 5 mM glucose + 10% dialyzed FBS, 0.0632 µM
[28] = RPMI 5 mM glucose + 10% dialyzed FBS, 0.19 µM
[29] = RPMI 5 mM glucose + 10% dialyzed FBS, 0.569 µM
[30] = RPMI 5 mM glucose + 10% dialyzed FBS, 1.71 µM
[31] = RPMI 5 mM glucose + 10% dialyzed FBS, 5.12 µM
[32] = RPMI 5 mM glucose + 10% dialyzed FBS, 15.4 µM
[33] = RPMI 5 mM glucose + 10% dialyzed FBS, 46.1 µM

SMILES	cell viability [1]	cell viability [2]	cell viability [3]	cell viability [4]	cell viability [5]	cell viability [6]	cell viability [7]	cell viability [8]	cell viability [9]	cell viability [10]	cell viability [11]	cell viability [12]	cell viability [13]	cell viability [14]	cell viability [15]	cell viability [16]	cell viability [17]	cell viability [18]	cell viability [19]	cell viability [20]	cell viability [21]	cell viability [22]	cell viability [23]	cell viability [24]	cell viability [25]	cell viability [26]	cell viability [27]	cell viability [28]	cell viability [29]	cell viability [30]	cell viability [31]	cell viability [32]	cell viability [33]
CN(C)c1ccc2nc3ccc(N(C)C)cc3[s+]c2c1	89.6%	51.3%	99.7%	104%	104%	117%	114%	102%	97%	18.6%	5.42%	82.6%	44.9%	89.8%	97.6%	91.1%	111%	79.7%	85.7%	87.2%	73.7%	6.3%	86.7%	38.2%	80%	89.2%	92.7%	91.2%	90.1%	91.1%	78.7%	46.8%	6.19%
O=C(CS(=O)Cc1ccco1)NC/C=C\COc1cc(CN2CCCCC2)ccn1 (stereo not given)	78.7%	86.2%	89.4%	96.9%	93.8%	99.5%	102%	96.7%	102%	100%	97.3%	86%	91.3%	90.7%	87.1%	96.8%	95.5%	107%	106%	93.6%	102%	103%	81.5%	93.7%	98.4%	75.9%	97.1%	88.4%	106%	97.3%	110%	99.8%	93.9%
CCc1cc(C(N)=S)ccn1	80.7%	81.5%	88%	86.3%	91.5%	92.3%	90.8%	89.8%	91.2%	54.7%	84.7%	112%	103%	98.1%	108%	104%	107%	102%	97.8%	88.4%	36.1%	68.7%	94.9%	99.1%	89.8%	106%	101%	116%	102%	94.5%	100%	53.9%	64.2%
C[C@@H]1CCN(C(=O)CC#N)C[C@@H]1N(C)c1ncnc2[nH]ccc12	85%	92.5%	81.5%	85.7%	91%	77.4%	67.4%	80%	67%	73.1%	78.6%	96.6%	99.5%	79.5%	97.4%	103%	104%	99.3%	98.5%	80%	90.7%	95.3%	112%	104%	77.5%	109%	105%	92.4%	82.1%	94%	57.9%	83.5%	88.4%
COc1cc2ncn(-c3cc(OCc4ccccc4[S+](C)(=O)[O-])c(C#N)s3)c2cc1OC	102%	102%	90.9%	105%	95.1%	98.3%	98.3%	103%	78.5%	95.7%	82.4%	114%	110%	100%	124%	121%	110%	108%	107%	94.4%	122%	93.4%	92.4%	107%	89.1%	103%	98.9%	110%	112%	101%	106%	98.7%	78.9%
OC1=CC=C(C=C1)\C2=C\OC3=C(C(=CC(=C3)O)O)C2=O	95.4%	109%	96.8%	105%	108%	119%	112%	79.1%	105%	102%	74.8%	93.1%	82.2%	89.8%	86%	91%	95.7%	94.2%	56.6%	91.9%	72.7%	36.2%	94.5%	103%	104%	102%	119%	115%	115%	65.1%	92.6%	101%	59%
C[C@@H](NCCCc1cccc(C(F)(F)F)c1)c1cccc2ccccc12	121%	119%	116%	117%	118%	111%	120%	122%	113%	106%	105%	112%	124%	119%	131%	107%	113%	116%	114%	96.5%	94.3%	111%											
CC(NC(C)(C)C)C(=O)c1cccc(Cl)c1 (stereo not given)	94.9%	120%	102%	100%	109%	104%	108%	64.6%	127%	46%	103%	106%	123%	117%	108%	114%	119%	127%	73.2%	125%	23.1%	98.9%	99.9%	128%	123%	112%	117%	140%	139%	71.9%	135%	35.7%	126%
Cc1nn(C)c(COc2ccc(N3CCN([S+](=O)([O-])N(C)C)CC3)cc2)c1-c1cccc2c(CCCOc3cccc4ccccc34)c(C(=O)O)n(CCN3CCOCC3)c12	86%	82.9%	102%	99.8%	105%	100%	101%	118%	96.2%	112%	51.7%												97.3%	106%	105%	106%	110%	91.4%	123%	114%	71%	117%	21.4%
O=C([O-])C[C@H](O)C[C@H](O)/C=C/c1c(C2CC2)nc2ccccc2c1-c1ccc(F)cc1	82.3%	73.1%	97.5%	102%	89.1%	90%	86.1%	83.9%	87.4%	70%	18.9%	99.4%	85.2%	99.1%	97.9%	108%	99.4%	96.7%	109%	81.6%	43.7%	10.7%	99.1%	81%	91.7%	95.9%	112%	85%	79.6%	97.9%	94.5%	69.1%	13.6%
CCN1\C=C(\C(O)=O)C(=O)C2=C1N=C(N3CCNCC3)C(=C2)F	58.6%	79.7%	68.2%	87.3%	84.8%	92.3%	84.8%	88.5%	84.2%	81%	68%	77.9%	102%	72%	82%	92.5%	84.5%	92.8%	81.9%	86%	89.6%	77.4%	74.9%	86.8%	71.2%	90.4%	78.1%	84%	90.5%	93.9%	81.5%	103%	87.8%
CC(C)=CCC/C(C)=C/CC/C(C)=C/CC/C(C)=C/CC/C(C)=C/CC/C(C)=C/CC/C(C)=C/CC/C(C)=C/CC/C(C)=C/CO	94.8%	109%	103%	99.7%	91.2%	98.9%	115%	77.8%	100%	85.5%	119%	109%	105%	121%	96.9%	104%	111%	114%	60.7%	107%	60.5%	102%	99.4%	99.6%	95.6%	102%	105%	100%	108%	61.6%	78.4%	63.4%	89.3%
OC[C@H]1O[C@H](C[C@@H]1O)N2\C=C(F)/C(=O)NC2=O	124%	113%	120%	86.7%	55.3%	47.7%	46.1%	44.4%	35.1%	31.5%	12.1%	119%	115%	121%	121%	130%	102%	86.9%	80.3%	33.9%	40.6%	16.3%	110%	92.8%	88.5%	40.5%	35.1%	26.5%	31.1%	25.6%	23.3%	18.1%	10.8%
Cc1ccc(C(=O)Nc2cccc(C(F)(F)F)c2)cc1-c1ccc2nc(NCCN3CCOCC3)ncc2c1	115%	118%	118%	122%	107%	109%	114%	101%	51.3%	31.6%	8.49%	105%	113%	112%	125%	116%	114%	110%	103%	41.6%	15.7%	7.56%	109%	101%	94.5%	97%	124%	92.8%	117%	97.3%	35.8%	15.9%	6.55%
